ChEMBL document CHEMBL5303573, “Mapping human microbiome drug metabolism by gut bacteria and their genes” (Nature, 2019)

How the values were obtained:
[1] = The drug is tested on Collinsella aerofaciens strain: ATCC25986 for biotransformation. The drug concentrations were measured before and after a 12-h incubation by liquid-chromatography-coupled mass spectrometry (LC–MS); details: 2 µM
[2] = anaerostipes sp., 12 h, 2 µM
Description: The drug is tested on Anaerostipes sp. strain: fecal isolate for biotransformation. The drug concentrations were measured before and after a 12-h incubation by liquid-chromatography-coupled mass spectrometry (LC–MS)

[3] = bacteroides intestinalis, 12 h, 2 µM
Description: The drug is tested on Bacteroides intestinalis strain: DSM17393 for biotransformation. The drug concentrations were measured before and after a 12-h incubation by liquid-chromatography-coupled mass spectrometry (LC–MS)

[4] = The drug is tested on Dorea formicigenerans strain: ATCC27755 for biotransformation. The drug concentrations were measured before and after a 12-h incubation by liquid-chromatography-coupled mass spectrometry (LC–MS); details: 2 µM
[5] = The drug is tested on Clostridium sp. strain: fecal isolate for biotransformation. The drug concentrations were measured before and after a 12-h incubation by liquid-chromatography-coupled mass spectrometry (LC–MS); details: 2 µM
[6] = The drug is tested on Parabacteroides merdae strain: ATCC43184 for biotransformation. The drug concentrations were measured before and after a 12-h incubation by liquid-chromatography-coupled mass spectrometry (LC–MS); details: 2 µM
[7] = bacteroides fragilis, 12 h, 2 µM
Description: The drug is tested on Bacteroides fragilis strain: DS-208 for biotransformation. The drug concentrations were measured before and after a 12-h incubation by liquid-chromatography-coupled mass spectrometry (LC–MS)

[8] = The drug is tested on Bifidobacterium ruminantium strain: fecal isolate for biotransformation. The drug concentrations were measured before and after a 12-h incubation by liquid-chromatography-coupled mass spectrometry (LC–MS); details: 2 µM
[9] = The drug is tested on Clostridium scindens strain: ATCC35704 for biotransformation. The drug concentrations were measured before and after a 12-h incubation by liquid-chromatography-coupled mass spectrometry (LC–MS); details: 2 µM
[10] = The drug is tested on Bacteroides vulgatus strain: ATCC8482 for biotransformation. The drug concentrations were measured before and after a 12-h incubation by liquid-chromatography-coupled mass spectrometry (LC–MS); details: phocaeicola vulgatus, 2 µM
[11] = bacteroides thetaiotaomicron, 12 h, 2 µM
Description: The drug is tested on Bacteroides thetaiotaomicron strain: VPI-5482 for biotransformation. The drug concentrations were measured before and after a 12-h incubation by liquid-chromatography-coupled mass spectrometry (LC–MS)

[12] = bifidobacterium adolescentis, 12 h, 2 µM
Description: The drug is tested on Bifidobacterium adolescentis strain: ATCC 15703 for biotransformation. The drug concentrations were measured before and after a 12-h incubation by liquid-chromatography-coupled mass spectrometry (LC–MS)

[13] = The drug is tested on Anaerotruncus colihominis strain: DSM17241 for biotransformation. The drug concentrations were measured before and after a 12-h incubation by liquid-chromatography-coupled mass spectrometry (LC–MS); details: 2 µM
[14] = The drug is tested on Bifidobacterium longum subsp. Infantis strain: CCUG52486 for biotransformation. The drug concentrations were measured before and after a 12-h incubation by liquid-chromatography-coupled mass spectrometry (LC–MS); details: 2 µM
[15] = The drug is tested on Ruminococcus gnavus strain: ATCC29149 for biotransformation. The drug concentrations were measured before and after a 12-h incubation by liquid-chromatography-coupled mass spectrometry (LC–MS); details: mediterraneibacter gnavus, 2 µM
[16] = The drug is tested on Ruminococcus lactaris strain: ATCC29176 for biotransformation. The drug concentrations were measured before and after a 12-h incubation by liquid-chromatography-coupled mass spectrometry (LC–MS); details: 2 µM
[17] = The drug is tested on Ruminococcus torques strain: ATCC27756 for biotransformation. The drug concentrations were measured before and after a 12-h incubation by liquid-chromatography-coupled mass spectrometry (LC–MS); assay type: ADME; design: dose 2 uM, timepoint 0 vs 12 hours; details: 2 µM
[18] = The drug is tested on Bacteroides caccae strain: ATCC43185 for biotransformation. The drug concentrations were measured before and after a 12-h incubation by liquid-chromatography-coupled mass spectrometry (LC–MS); details: 2 µM
[19] = parabacteroides johnsonii, 12 h, 2 µM
Description: The drug is tested on Parabacteroides johnsonii strain: DSM18315 for biotransformation. The drug concentrations were measured before and after a 12-h incubation by liquid-chromatography-coupled mass spectrometry (LC–MS)

| SMILES | Bacterial Biotransformation [1] | Bacterial Biotransformation [2] | Bacterial Biotransformation [3] | Bacterial Biotransformation [4] | Bacterial Biotransformation [5] | Bacterial Biotransformation [6] | Bacterial Biotransformation [7] | Bacterial Biotransformation [8] | Bacterial Biotransformation [9] | Bacterial Biotransformation [10] | Bacterial Biotransformation [11] | Bacterial Biotransformation [12] | Bacterial Biotransformation [13] | Bacterial Biotransformation [14] | Bacterial Biotransformation [15] | Bacterial Biotransformation [16] | Bacterial Biotransformation [17] | Bacterial Biotransformation [18] | Bacterial Biotransformation [19] |
| --- | --- | --- | --- | --- | --- | --- | --- | --- | --- | --- | --- | --- | --- | --- | --- | --- | --- | --- | --- |
| Cc1nc(-c2ccc(OCC(C)C)c(C#N)c2)sc1C(=O)O [FEBUXOSTAT] | Compound NOT metabolized | Compound NOT metabolized | Compound NOT metabolized | Compound NOT metabolized | Compound NOT metabolized | Compound NOT metabolized | Compound NOT metabolized | Compound NOT metabolized | Compound NOT metabolized | Compound metabolized | Compound NOT metabolized | Compound NOT metabolized | Compound NOT metabolized | Compound NOT metabolized | Compound NOT metabolized | Compound metabolized | Compound NOT metabolized |  |  |
| O=P(O)(O)O.c1ccc(CN(CC2=NCCN2)c2ccccc2)cc1 [ANTAZOLINE PHOSPHATE] | Compound NOT metabolized | Compound NOT metabolized | Compound NOT metabolized | Compound NOT metabolized | Compound NOT metabolized | Compound NOT metabolized | Compound NOT metabolized | Compound NOT metabolized | Compound NOT metabolized | Compound NOT metabolized | Compound NOT metabolized | Compound NOT metabolized | Compound NOT metabolized | Compound NOT metabolized | Compound NOT metabolized | Compound NOT metabolized | Compound NOT metabolized | Compound NOT metabolized |  |
| c1ccc2[nH]c(-c3cscn3)nc2c1 [THIABENDAZOLE] | Compound NOT metabolized | Compound NOT metabolized | Compound NOT metabolized | Compound NOT metabolized | Compound NOT metabolized |  | Compound NOT metabolized | Compound NOT metabolized | Compound NOT metabolized |  | Compound NOT metabolized | Compound NOT metabolized | Compound NOT metabolized | Compound NOT metabolized | Compound NOT metabolized | Compound NOT metabolized | Compound NOT metabolized | Compound NOT metabolized | Compound NOT metabolized |
